Experimental findings from patent US20070249670A1, “Glycogen Phosphorylase Inhibitor Compounds and Pharmaceutical Compositions Thereof” (SMITHKLINE BEECHAM CORPORATION, priority 2004, published 2007) are described below.

In this assay the target is T1, human liver glycogen phosphorylase a (HLGPa) (Homo sapiens, UniProt P06737).
T1 construct: creating a full-length cDNA fused at the 5′ end to codons for methionine-glycine-alanine-histidine; 6xHis tag (leader Met-Gly-Ala-His6-Gly-Gly) (N); made in house; host or cells: E. coli (bacterial expression plasmid pTXK1007LTev)
T1 sequence (P06737 2-847 limits assumed): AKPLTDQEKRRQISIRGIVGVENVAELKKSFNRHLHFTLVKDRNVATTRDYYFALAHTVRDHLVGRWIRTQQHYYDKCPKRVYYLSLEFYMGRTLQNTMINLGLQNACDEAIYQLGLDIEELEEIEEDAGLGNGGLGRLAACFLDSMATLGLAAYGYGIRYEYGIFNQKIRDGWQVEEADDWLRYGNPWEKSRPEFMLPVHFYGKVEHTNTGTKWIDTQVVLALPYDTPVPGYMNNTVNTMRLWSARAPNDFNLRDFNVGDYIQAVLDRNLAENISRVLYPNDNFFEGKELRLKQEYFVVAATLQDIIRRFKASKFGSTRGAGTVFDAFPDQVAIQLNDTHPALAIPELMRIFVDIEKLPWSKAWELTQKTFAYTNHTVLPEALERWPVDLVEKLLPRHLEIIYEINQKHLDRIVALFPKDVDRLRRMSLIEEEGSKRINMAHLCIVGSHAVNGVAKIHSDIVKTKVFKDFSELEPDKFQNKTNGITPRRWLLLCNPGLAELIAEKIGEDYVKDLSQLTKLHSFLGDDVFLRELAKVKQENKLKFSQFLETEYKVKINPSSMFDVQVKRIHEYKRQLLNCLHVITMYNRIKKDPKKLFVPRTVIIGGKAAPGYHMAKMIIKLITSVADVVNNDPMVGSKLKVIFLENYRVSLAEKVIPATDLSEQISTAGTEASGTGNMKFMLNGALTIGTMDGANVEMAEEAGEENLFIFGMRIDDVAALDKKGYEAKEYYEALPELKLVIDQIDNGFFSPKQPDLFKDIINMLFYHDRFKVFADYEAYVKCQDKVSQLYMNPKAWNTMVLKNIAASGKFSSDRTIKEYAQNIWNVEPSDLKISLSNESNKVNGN
Nature of the assay: Human liver glycogen phosphorylase a enzymatic activity assay (coupled, fluorescent resorufin readout, with and without 10 mM glucose). It counts as biochemical.

Where [1] appears, read: human liver glycogen phosphorylase a enzymatic activity assay.
[2] abbreviates: human liver glycogen phosphorylase a, table does not say whether with or without 10 mM glucose.

Broadly, the IC50 is the concentration that inhibits the measured activity by half. Read a low IC50 as greater potency in that assay. Under setting [1], `COc1cccc(-c2cc(C(=O)N[C@H](C(=O)O)C3CCCCC3)c(NC(=O)Nc3c(Cl)cccc3Cl)s2)c1` [Example 417, (2S)-cyclohexyl[({2-({[(2,6-dichlorophenyl)amino]carbonyl}amino)-5-[3-(methyloxy)phenyl]-3-thienyl}carbonyl)amino]ethanoic acid] showed a 50% inhibitory concentration (IC50) of 360 nM.

With `O=C(Nc1sc(Br)cc1C(=O)O)Nc1c(Cl)cccc1Cl` [Example 413, 5-bromo-2-({[(2,6-dichlorophenyl)amino]carbonyl}amino)-3-thiophenecarboxylic acid], under setting [1], the IC50 came to 10600 nM.

Under setting [1], `Cc1cccc(C)c1NC(=O)Nc1cc(F)c(F)cc1C(=O)N[C@@H](CC1CCCCC1)C(=O)O` [Example 118, 3-cyclohexyl-N-[2-({[(2,6-dimethylphenyl)amino]carbonyl}amino)-4,5-difluorobenzoyl]-L-alanine] had an IC50 of 15700 nM.

`Cc1cc(C)c(NC(=O)Nc2cc3ccccc3nc2C(=O)NC2(C(=O)O)CCCCCC2)c(C)c1` [Example 306, 1-({[3-({[(2,4,6-trimethylphenyl)amino]carbonyl}amino)-2-quinolinyl]carbonyl}amino)cycloheptanecarboxylic acid] showed an IC50 under setting [2] of 11 nM.

Under setting [2], `Cc1cccc(C)c1NC(=O)Nc1cc2ccccc2cc1C(=O)N(CC(=O)O)Cc1ccccn1` [Example 241, N-{[3-({[(2,6-dimethylphenyl)amino]carbonyl}amino)-2-naphthalenyl]carbonyl}-N-(2-pyridinylmethyl)glycine] displayed a half-inhibitory concentration (IC50) of 3610 nM.

In turn, `Cc1cccc(C)c1NC(=O)Nc1cc(-c2ccsc2)ccc1C(=O)N[C@H](C(=O)O)C1CCCCC1` [Example 184, (2S)-Cyclohexyl({[2-({[(2,6-dimethylphenyl)amino]carbonyl}amino)-4-(3-thienyl)phenyl]carbonyl}amino)ethanoic acid] came in with a concentration for half-maximal inhibition (IC50) under setting [1] of 220 nM.

`COc1ccc(-c2nc(C(=O)O)c(NC(=O)Nc3c(C)cc(C)cc3C)s2)cc1` [Example 488, 2-[4-(Methyloxy)phenyl]-5-({[(2,4,6-trimethylphenyl)amino]carbonyl}amino)-1,3-thiazole-4-carboxylic acid] came in with an IC50 under setting [1] of 8230 nM.

In turn, `Cc1cc(C)c(NC(=O)Nc2cc(S(C)(=O)=O)ccc2C(=O)N[C@H](C(=O)O)C2CCCCC2)c(C)c1` [Example 220, (2S)-Cyclohexyl({[4-(methylsulfonyl)-2-({[(2,4,6-trimethylphenyl)amino]carbonyl}amino)phenyl]carbonyl}amino)ethanoic acid] gave an IC50 under setting [2] of 1960 nM.

Take `Cc1cccc(C)c1NC(=O)Nc1sc2c(c1C(=O)N[C@@H](CC(=O)O)C(=O)O)CCCC2` [Example 132, N-{[2-({[(2,6-dimethylphenyl)amino]carbonyl}amino)-4,5,6,7-tetrahydro-1-benzothien-3-yl]carbonyl}-L-aspartic acid]: the IC50 under setting [1] was 5250 nM.

As for `Cn1cc(-c2cc(C(=O)O)c(NC(=O)Nc3c(Cl)cccc3Cl)s2)cn1` [Example 422, 2-({[(2,6-dichlorophenyl)amino]carbonyl}amino)-5-(1-methyl-1H-pyrazol-4-yl)-3-thiophenecarboxylic acid], the midpoint of inhibition under setting [1], the IC50, lay at 6340 nM.

Under setting [1], `Cc1ccc(NC(=O)Nc2c(C)cccc2C)c(C(=O)N[C@H](C(=O)O)C2CCCCC2)c1` [Example 169, (2S)Cyclohexyl({[2({[(2,6dimethylphenyl)amino]carbonyl}amino)-5-methylphenyl]carbonyl}amino)ethanoic acid] gave an IC50 of 680 nM.

As for `COC(=O)[C@@H](NC(=O)c1cc(-c2ccccc2)sc1NC(=O)Nc1c(Cl)cc(Cl)cc1Cl)C1CCCCC1` [Example 392, methyl(2S)-cyclohexyl({[5-phenyl-2-({[(2,4,6-trichlorophenyl)amino]carbonyl}amino)-3-thienyl]carbonyl}amino)ethanoate], under setting [2], the half-inhibitory concentration (IC50) was found to be 1320 nM.

In turn, `COc1ccc(-c2cc(C(=O)N[C@H](C(=O)O)C3CCCCC3)c(NC(=O)Nc3c(C)cc(C)cc3C)s2)cc1` [Example 425, (2S)-cyclohexyl({[5-[4-(methyloxy)phenyl]-2-({[(2,4,6-trimethylphenyl)amino]carbonyl}amino)-3-thienyl]carbonyl}amino)ethanoic acid] came in with an IC50 under setting [1] of 16 nM.
